In ChEMBL document CHEMBL1142959, “Semisynthetic approaches to laspartomycin analogues” (2007) one finds MIC data, which are given here for two compounds.

Type in all cases: functional
Assay [1] deals with Staphylococcus epidermidis. Put plainly: Antimicrobial activity against methicillin-resistant Staphylococcus epidermidis ATCC 51625 by broth microdilution method.
Assay [2] deals with Staphylococcus aureus. Put plainly: Antimicrobial activity against vancomycin-intermediate Staphylococcus aureus CDC HIP 5836 by broth microdilution method. For orientation: Dilution methods test growth across graded concentrations, often in twofold steps.
A further assay concerns Enterococcus faecium. Put plainly: Antimicrobial activity against vancomycin/multidrug-resistant Enterococcus faecium ATCC 51559 by broth microdilution method.
Assay [3] relates to Staphylococcus aureus. Nature of the assay: Antimicrobial activity against methicillin-sensitive Staphylococcus aureus Smith ATCC 19636 by tube dilution method. The note with it: Staphylococcus aureus, Smith; read-out: MIC.
The subject of assay [4] is Staphylococcus aureus. Put plainly: Antimicrobial activity against methicillin-sensitive Staphylococcus aureus Smith ATCC 19636 by broth microdilution method.
For a further assay, the system named is Enterococcus faecalis. Nature of the assay: Antimicrobial activity against vancomycin-sensitive Enterococcus faecalis ATCC 29212 by broth microdilution method.
Assay [5] deals with Staphylococcus aureus. Put plainly: Antimicrobial activity against methicillin-resistant Staphylococcus aureus ATCC 43300 by broth microdilution method.

Molecules are shown by their SMILES. In brackets after ≈: the same amount, converted by molar mass.

`CCCCCCCCCCCCCCC(=O)N[C@@H](Cc1ccccc1)C(=O)N[C@@H](CC(=O)O)C(=O)N[C@H]1CNC(=O)[C@@H]2CCCN2C(=O)[C@H]([C@H](C)CC)NC(=O)[C@H]([C@@H](C)O)NC(=O)CNC(=O)[C@H](CC(=O)O)NC(=O)CNC(=O)C(CC(=O)O)NC(=O)CNC(=O)[C@@H]2CCCCN2C1=O` (single isomer, unassigned): the MIC in assay [1] came to 4 µg/mL (≈ 2.86 µM); with Staphylococcus aureus [2] it was 32 µg/mL (≈ 22.9 µM); against Enterococcus faecium, 8 µg/mL (≈ 5.73 µM); in the assay with Staphylococcus aureus [3], 4 µg/mL (≈ 2.86 µM); in the assay with Staphylococcus aureus [4], 4 µg/mL (≈ 2.86 µM); against Enterococcus faecalis, 4 µg/mL (≈ 2.86 µM). Besides, inhibition of growth in the assay with Staphylococcus aureus [5] (MIC) required 4 µg/mL (≈ 2.86 µM).

Take `CCCCCCCCCCCCCCNC(=O)N[C@@H](Cc1ccccc1)C(=O)N[C@@H](CC(N)=O)C(=O)N[C@H]1CNC(=O)[C@@H]2CCCN2C(=O)[C@H]([C@H](C)CC)NC(=O)[C@H]([C@@H](C)O)NC(=O)CNC(=O)[C@H](CC(=O)O)NC(=O)CNC(=O)[C@H](CC(=O)O)NC(=O)CNC(=O)[C@@H]2CCCCN2C1=O`: the MIC in assay [1] was 4 µg/mL (≈ 2.84 µM); with Staphylococcus aureus [2], 8 µg/mL (≈ 5.67 µM); against Enterococcus faecium, 8 µg/mL (≈ 5.67 µM); with Staphylococcus aureus [3], 4 µg/mL (≈ 2.84 µM); in the assay with Staphylococcus aureus [4], 4 µg/mL (≈ 2.84 µM); against Enterococcus faecalis, 2 µg/mL (≈ 1.42 µM). The compound also gave an MIC in the assay on Staphylococcus aureus [5] of 4 µg/mL (≈ 2.84 µM).

One may read the MIC as the least concentration at which growth counts as inhibited.
